Values quoted from earlier work, collected in patent US20220016119A1, “METHODS AND TREATMENTS FOR ERECTILE DYSFUNCTION” (Record Buck Farms Medical Cannabis, LLC, priority 2018, published 2022).

Settings: doses of up to 1500 mg/day

In the case of `C=C(C)[C@@H]1CCC(C)=C[C@H]1c1c(O)cc(CCCCC)cc1O` [Cannabidiol, cannabidiol], the “adverse effects in patients” value is listed as “no significant adverse effects”.
